One data set relates to BxPC-3 cells. Nature of the data set: Scratch wound healing assay. Type of data set: cell-based, human. To be noted: 5 μM aphidicolin; for effect on wound closure / migratory behavior: BxPC-3, inhibitor 20 μM. How it is done: Cells were seeded into Essen ImageLock 96-well plates. Cells were transfected with siRNA shortly after cells completely attached at 80 % confluency. […] The wound confluence was obtained and analyzed by using the IncuCyte phase-contrast imaging and scratch wound assay system and software (Essen Bioscience, USA). Wound closure was assessed by comparing the mean relative wound density (%RWD) according to the following formula: % RWD = 100 × w(t) − w(0)/[…]. Here, w(t) is the density of wounded area at time t and c(t) is the density of cell region at time t. Each experiment was conducted in triplicates.
We therefore assessed a possible contribution of ANO1 in PDAC cell migration using wound healing assay. […] The experiments were conducted in the presence of 5 μM aphidicolin to rule out a possible effect on cell proliferation. […] AsPC-1 cells were therefore not well suited for studies of lateral motility.
Fig. 9 ANO1 supports migration of PDAC cells. Wound healing assay is shown as relative wound density (density of wounded area relative to confluency of cell region) over time. Aphidicolin (5 μM) was added to stop proliferation. a AsPC-1 cells and b BxPC-3 cells after transfection with either scrambled siRNA (5 nM) or siRNA targeting ANO1 (50 nM). c BxPC-3 cells in presence of different inhibitors. Data shown represents mean ± s.e.m. of n = 4 experiments; each run was carried out in triplicates

The target of the next data set is T1, CaCC current (Homo sapiens, UniProt Q5XXA6).
T1 construct: Whole-cell patch-clamp recordings identified large Ca^2+ and voltage-dependent Cl^− currents in PDAC cells; endogenous in cells; host or cells: Capan-1, AsPC-1, BxPC-3 (human PDAC cell lines, ATCC)
T1 sequence (Q5XXA6 1-986): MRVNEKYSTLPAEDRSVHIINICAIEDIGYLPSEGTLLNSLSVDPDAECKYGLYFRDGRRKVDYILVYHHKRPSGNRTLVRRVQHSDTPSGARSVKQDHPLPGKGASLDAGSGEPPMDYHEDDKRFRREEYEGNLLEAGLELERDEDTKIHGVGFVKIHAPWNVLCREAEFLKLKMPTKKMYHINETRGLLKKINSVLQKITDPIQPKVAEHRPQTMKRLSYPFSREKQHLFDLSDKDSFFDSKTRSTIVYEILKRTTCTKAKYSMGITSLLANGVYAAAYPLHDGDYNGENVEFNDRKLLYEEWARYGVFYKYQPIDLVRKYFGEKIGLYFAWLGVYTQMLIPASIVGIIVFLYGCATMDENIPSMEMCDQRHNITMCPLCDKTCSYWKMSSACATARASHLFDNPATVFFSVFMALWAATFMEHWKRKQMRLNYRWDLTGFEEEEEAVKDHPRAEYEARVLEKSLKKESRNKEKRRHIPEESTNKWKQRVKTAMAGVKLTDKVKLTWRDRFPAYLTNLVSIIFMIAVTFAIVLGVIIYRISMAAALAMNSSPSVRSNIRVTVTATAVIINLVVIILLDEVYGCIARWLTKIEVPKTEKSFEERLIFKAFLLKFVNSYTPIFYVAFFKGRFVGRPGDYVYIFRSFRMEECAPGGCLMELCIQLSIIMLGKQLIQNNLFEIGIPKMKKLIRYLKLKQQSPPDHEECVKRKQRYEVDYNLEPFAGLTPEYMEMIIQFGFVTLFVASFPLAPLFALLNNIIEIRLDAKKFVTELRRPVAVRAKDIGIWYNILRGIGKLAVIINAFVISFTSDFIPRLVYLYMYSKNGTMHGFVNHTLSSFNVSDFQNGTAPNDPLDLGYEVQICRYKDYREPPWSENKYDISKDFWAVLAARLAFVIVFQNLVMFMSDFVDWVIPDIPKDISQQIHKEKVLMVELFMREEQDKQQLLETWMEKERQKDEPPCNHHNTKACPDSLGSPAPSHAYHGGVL
Nature of the data set: Whole-cell patch-clamp of CaCC currents in PDAC cells, 1 μM Ca2+ in pipette solution. To be noted: for decrease of CaCC currents: siRNA 50 nM, compared to scrambled siRNA (MOCK). Type of data set: cell-based. How it is done:
Cells were grown on poly-L-lysine coated coverslips. For knockdown experiments, cells were transfected with siRNA targeting ANO1 or scrambled siRNA shortly after complete attachment of the cells (approx. 3 h after plating). Currents were measured 36–48 h after transfection. Whole-cell patch-clamp recordings were performed using the Axopatch 200B amplifier interfaced to a Digidata 1440A controlled by pClamp10 software (Molecular Devices, USA). Analogue signals were acquired at 2.5 kHz and filtered at 1 kHz. […] An agar bridge made of 3 % agar and 97 % of the bath solution containing NMDG-Cl (below) was used as reference electrode. Current activations were recorded from an output holding potential, V out = 0 mV with ramp protocols spanning from −100 to 100 mV over 1 s and run continuously with 15-s intervals. Step protocols between −100 to 120 mV were generated from V out = 0 mV with step increments of 20 mV and lengths of 2 s. Liquid junction potentials (V lj) were estimated as described in [10] with membrane potentials calculated as, V m = V out − V lj. Series resistance was compensated by 60–70 %. All recordings were performed at room temperature (18–23 °C). Instantaneous currents were measured 1 ms after each voltage step. The data was fitted using the Goldman–Hodgkin–Katz (GHK) current equation.1 ICl^−=Pz^2F^2V/RTCo−Cie^zFV/RT/1−e^zFV/RT
One micromolar free Ca^2+ pipette solution include the following (in mM): 100 CsAsp, 40 CsCl, 4.34 CaCl2, 4 Na2ATP, 1 MgCl2, 5 EGTA, 10 HEPES, pH 7.2, osmolality 295 mosmol/kg or 0 μM free Ca^2+ solution containing no CaCl2 and 10 mM EGTA. Standard bath solution include the following (in mM): 150 NaCl, 1.5 CaCl2, 1 MgCl2, 10 glucose, 10 HEPES, pH 7.4, osmolality 315 mosmol/kg (adjusted with D-mannitol). Isotonic solution include the following (in mM): 85 NaCl, 2 MgCl2, 1.5 CaCl2, 10 glucose, 10 HEPES, pH 7.4, of osmolality 315 mosmol/kg (adjusted with D-mannitol). The hypotonic solution with osmolality of 210 mosmol/kg was obtained by omitting D-mannitol from the isotonic solution. For experiments testing efficiency of an inhibitor, NaCl was replaced by N-methyl-D-glucamine chloride (NMDG-Cl) after seal formation. All osmolalities were measured in a Wescor Vapro model 5520 osmometer (Wescor Inc., USA) calibrated by the manufacturer’s Optimol standard solutions.
Whole-cell patch-clamp recordings with 1 μM Ca^2+ in pipette solution. a Representative current traces measured in Capan-1 cells upon exposure to different inhibitors. b Quantification of CaCC currents at +67 mV recorded with inhibitors compared to currents in presence of DMSO; currents of siANO1 cells were compared to those of MOCK transfected cells. c Steady-state I–V relationships of cells transfected with either scrambled siRNA (MOCK) or siRNA targeting ANO1. d Densitometric quantification of Western blot analysis of siRNA knockdown. β-Actin was used as a loading control. (n) = number of individual experiments
A general note: The patch-clamp technique gives a direct electrical read-out from membranes.

d = 2'-deoxy (DNA)

The values that follow come from paper PMC4464647, “ANO1 (TMEM16A) in pancreatic ductal adenocarcinoma (PDAC)” (Pflugers Archiv, 2014).

As a reminder, the inhibition is the relative decrease from the control value, in per cent.

Take `CC(C)(C)C1CCc2c(sc(NC(=O)c3ccco3)c2C(=O)O)C1` (stereo not drawn) [CaCCinh-A01, 6-(1,1-dimethylethyl)-2-[(2-furanylcarbonyl)amino]-4,5,6,7-tetrahydrobenzo[b]thiophene-3-carboxylic acid]: the “effect on wound closure / migratory behavior” value with BxPC-3 cells is recorded as “seemed to slow down wound closure; however, this did not reach significance”.

As to `CCc1c(C)nc(SCC(=O)Nc2nc(-c3ccc(OC)cc3)cs2)[nH]c1=O` [T16Ainh-A01, 2-[(5-Ethyl-1,6-dihydro-4-methyl-6-oxo-2-pyrimidinyl)thio]-N-[4-(4-methoxyphenyl)-2-thiazolyl]acetamide], the inhibition at 20 µM amounted to 29 ± 2% at CaCC current (ASPC1, AsPC-1 cells, inhibitor 20 μM, at +67 mV, vs DMSO) and 43 ± 8% against CaCC current (Capan-1 cells, inhibitor 20 μM, at +67 mV, vs DMSO). On CaCC current (BxPC-3 cells, inhibitor 20 μM, at +67 mV, vs DMSO), the “inhibition of CaCC current” value was “ineffective”. In addition, the “effect on wound closure / migratory behavior” value in the data set with BxPC-3 cells is on record as “no detectable effect on migratory behavior”.

As for “siRNA targeting ANO1: Predesigned siRNA oligo from Sigma-Aldrich, 5′-CCUUCAACGUCAGUGACUU[dT][dT]-3′, 5′-AAGUCACUGACGUUGAAGG[dT][dT]-3′ (RNA, 3' dTdT, backbone not given here)”, the “decrease of CaCC currents” value is 89 ± 51% in the data set with CaCC current (AsPC-1 cells), 84 ± 23% with CaCC current (BxPC-3 cells) and 88 ± 42% in the data set with CaCC current (Capan-1 cells). Further, the “migration decreased to” value with BxPC-3 cells (BxPC-3, siRNA 50 nM, after 60 h) turned out to be 30 ± 8%.
